Laboratory results as given in patent publication US8084459B2, “Substituted quinazolinones for treating neurological conditions” (Prana Biotechnology Ltd, priority 2004, dated 2011).

Assays:
[1] = Assay 3(d) test compound cytotoxicity (MTS); format: cell-based; conditions: BL6Jx129sv, mouse, primary cortical neuronal cultures, cortical neurons; for viability at 4 days, 10 µM: read-out: Assay 3(d) Cytotoxicity (% viable at 10 uM); for viability at 4 days, 1 µM: read-out: Assay 3(d) Cytotoxicity (% viable at 1 uM)
Protocol: (§1) Primary Cortical Neuronal Cultures
(§2) Cortical cultures were prepared as previously described (White et al., 1998). Embryonic day 14 BL6Jx129sv mouse cortices were removed, dissected free of meninges and dissociated in 0.025% (wt/vol) trypsin. Dissociated cells were plated in 48 well culture plates at a density of 2×10^6 cells/mL in MEM with 25% (vol/vol) FCS and 5% (vol/vol) HS and incubated at 37° C., 2 hrs. Media was then replaced with Neurobasal media (Invitrogen Life Technologies) and B27 supplements (Invitrogen Life Technologies). Cultures were maintained at 37° C. in 5% CO2. Prior to experimentation, the culture medium was replaced with Neurobasal media and B27 minus antioxidants (Invitrogen Life Technologies).
(a) MTS Assay for Cell Viability
Cell viability is determined using the MTS assay. Culture medium is replaced with fresh neurobasal medium plus B27 supplements minus antioxidants. 1/10 volume MTS solution (Cell Titre 96 Aqueous One, Promega Corporation) and incubated at 37° C., 2 hrs. 200 microlitre aliquots are measured with a spectrophotometer at 560 nm.
(d) Assay for Test Compound Cytoxicity
Neuronal cortical cells were cultured for five days as per Assay 2 in NB media and B27 supplement.
On day six the test compounds were added to the neuronal cell cultures in NB media and B27 supplement minus antioxidants.
Test compounds were dissolved in 100% DMSO to a concentration of 2.5 mM (10 mM if excess compound was weighed out per vial—then diluted to 2.5 mM). 2.5 mM stock solution was serially diluted 1 in 10 to give working solutions of 250 uM, 25 uM, 2.5 uM. Test compounds were not added directly to cells, instead they were added to a 48 well ‘Drug Plate’ as comprised below:
(§3) Preparation of “Drug Plate”:
• Well 1: 576 ul NB+B27 (no antioxidant)*+24 ul 2.5 uM test compound • Well 2: 576 ul NB+B27 (no antioxidant)+24 ul 25 uM test compound • Well 3: 576 ul NB+B27 (no antioxidant)+24 ul 250 uM test compound • Well 4: 576 ul NB+B27 (no antioxidant)+24 ul 2.5 uM test compound • Well 5: 576 ul NB+B27 (no antioxidant)+24 ul 25 uM test compound • Well 6: 576 ul NB+B27 (no antioxidant)+24 ul 250 uM test compound • Well 7: 576 ul NB+B27 (no antioxidant)+24 ul test compound diluent** • Well 8: 600 ul NB+B27 (no antioxidant)
The Drug Plate was incubated at 37° C. for 15 mins. 200 ul of each well was added in triplicate to the corresponding cell plate. The cell plate was incubated at 37° C., for 4 days, (2 compounds are tested on each plate of cells).
* NB media and B27 (no antioxidants),
** PBT diluent 10% DMSO in NB+B27 (no antioxidants)
On completion of the assay, 1/10 volume MTS was added per well of plate (ie 25 ul/250 ul). The plates were incubated at 37° C. for 2 hrs, and then absorbance was read at 560 nm.

[2] = system: Aβ1-42 toxicity in neuronal cortical cells; experiment: Assay 3(c) Aβ neurotoxicity and neuroprotection (MTS); format: cell-based, mouse; conditions: 20 uM Aβ1-42, cortical neurons, 4 days
Protocol: as §1, §2
(c) Assay for Aβ Neurotoxicity and Aβ Neuroprotection
Neuronal cortical cells were cultured for five days as per Assay 2. On day six the neurobasal (NB) media (Invitrogen Life Technologies) and B27 supplement (Invitrogen Life Technologies) were replaced with NB media and B27 supplement (no antioxidants). On day six, test compounds were individually added to the neuronal cell cultures:
The test compounds were dissolved in 100% DMSO to a concentration of 2.5 mM (10 mM if excess compound was weighed out per vial—then diluted to 2.5 mM). 2.5 mM stock solution was serially diluted 1 in 10 to give working solutions of 250 uM, 25 uM, 2.5 uM.
Aβ was initially dissolved in 20 mM NaOH to a concentration of 1 mM and sonicated for 5 minutes. The peptide was then diluted in H2O and 10×PBS to a final concentration of 200 uM Aβ in 1× PBS. The peptide was again sonicated for 5 minutes and then spun at 14000 rpm for 5 min and transferred to a fresh tube.
The test compounds were dissolved in 100% DMSO to a concentration of 2.5 mM (10 mM if excess compound was weighed out per vial—then diluted to 2.5 mM). 2.5 mM stock solution was serially diluted 1 in 10 [in NB media and B27 (no antioxidants)] to give working solutions of 250 uM, 25 uM, 2.5 uM. Test compounds were not added directly to cells, instead they were added to a 48 well ‘Drug Plate’ as comprised below:
as §3
Well 1: 515 ul NB+B27 (no antioxidant)*+24 ul 25 uM test compound+60 ul Aβ diluent**
Well 2: 515 ul NB+B27 (no antioxidant)+24 ul 250 uM test compound+60 ul Aβ diluent
Well 3: 515 ul NB+B27 (no antioxidant)+24 ul test compound diluent***+60 ul Aβ1-42
Well 4: 515 ul NB+B27 (no antioxidant)+24 ul 2.5 uM test compound+60 ul Aβ1-42
Well 5: 515 ul NB+B27 (no antioxidant)+24 ul 25 uM test compound+60 ul Aβ1-42
Well 6: 515 ul NB+B27 (no antioxidant)+24 ul 250 uM test compound+60 ul Aβ1-42 diluent
Well 7: 515 ul NB+B27 (no antioxidant)+24 ul test compound diluent+60 ul Aβ1-42 diluent
Well 8: 600 ul NB+B27 (no antioxidant)
The Drug Plate was incubated at 37° C. for 15 mins. 200 ul of each well was added in triplicate to the corresponding cell plate. The cell plate was incubated at 37 C, for 4 days.
* NB media+B27 (no antioxidants)
** Aβ diluent 2 mM NaOH, 1×PBS
*** PBT diluent 10% DMSO in NB+B27 (no antioxidant)
On the 4th day after treating the cells the assay is completed by adding MTS to the cells.

[3] = target: T1, Aβ 1-42 (Homo sapiens, UniProt P05067); experiment: Assay 1 Fluorometric H2O2 assay (peroxide); format: biochemical; conditions: inhibition of H2O2 generation by Aβ with copper
T1 construct: The reaction solutions contained Aβ 1-42 at concentrations
Protocol: Assay 1. Fluorometric H2O2 Assay
A fluorometric assay was used to test the ability of a test compound to inhibit hydrogen peroxide generation by Aβ in the presence of copper based on dichlorofluoroscein diacetate (DCF; Molecular Probes, Eugene Oreg.). The DCF solution (5 mM) in 100% dimethyl sulphoxide (previously purged with argon for 1 hr at 20° C.) was deacetylated in the presence of 0.025M NaOH for 30 min and neutralised at pH 7.4 to a final concentration of 1 mM. Horseradish peroxidase (HRP) stock solution was prepared to 1 μM at pH 7.4. The reactions were carried out in PBS, pH 7.4 in a 96 well plate (total volume=250 μl/well). The reaction solutions contained Aβ 1-42 at concentrations in the range of 50 nM to 1 μM, copper-glycine chelate (Cu-Gly), was prepared by adding CuCl2 to glycine in the ratio of 1:6 and added to the Aβ in the proportion 2Cu-Gly:1Aβ), reducing agents including dopamine (5 μM) or ascorbic acid, deacetylated DCF 100 μM, and HRP, 0.1 μM. 1-10 μM EDTA or another chelator may also be present as a control for free copper, but was not required for the assay to function. The reaction mixture was incubated at 37 C for 60 min. Catalase (4000 units/ml) and H2O2 (1-2.5 μM) standards in PBS pH 7.4 may be included as positive controls. Fluorescence was recorded using a plate reader with excitation and emission filters at […] respectively. H2O2 concentration may be established by comparing fluorescence with the H2O2 standards. Inhibition of Aβ H2O2 production was assayed by including a given concentration of test compound(s) in the test wells.

[4] = Assay 16 mouse plasma levels of test compounds; format: in vivo; conditions: highest level found in mice (Up to); oral dosing 30 mg/kg described for PB 1075-1077
Protocol: Assay 16. Determination of Mouse Plasma Levels of Test Compounds PB 1075
(§4) Oral administration of PB 1075 at 30 mg/kg, as a suspension in Na-Carboxymethyl Cellulose (CMC) was administered by oral gavage to four mice. Two mice were sacrificed 30 minutes after administration and two mice were sacrificed 60 minutes after administration. Blood was obtained by cardiac puncture and plasma separated by centrifugation.
The concentration of PB 1075 was determined by LC/MS using the triple quadrupole instrument. The mobile phase consisted of an acetonitrile (ACN)/water gradient (containing 0.05% Formic acid) and the column was a Phenomenex Lunea 5 um C8 (50×2 mm) column.
The supplied acute toxicity mouse plasma samples were directly injected following a protein precipitation with ACN. The analytical method in plasma was linear in the range of 10 to 10,000 ng/ml (R^2=0.994). Recovery of PB 1075 from plasma was ˜100%.
as §4, with “1076” for “1075”
The concentration of PB 1076 was determined by LC/MS using the triple quadrupole instrument. The mobile phase consisted of an acetonitrile (ACN)/water gradient (containing 0.05% Formic acid) and the column was a Phenomenex Luna 5 μM C8 (50×2 mm) column.
The mouse plasma samples were directly injected following a protein precipitation with ACN. The analytical method in plasma was linear in the range of 500 to 10,000 ng/ml (R^2=0.999). Recovery of PB 1076 from plasma was ˜85%.
as §4, with “1077” for “1075”
The concentration of PB 1077 was determined by LC/MS using the triple quadrupole instrument. The mobile phase consisted of an acetonitrile (ACN)/water gradient (containing 0.05% Formic acid) and the column was a Phenomenex Luna 5 μM C8 (50×2 mm) column.
The mouse plasma samples were directly injected following a protein precipitation with ACN. The analytical method in plasma was linear in the range of 5 to 5,000 ng/ml (R^2=0.999). Recovery of PB 1077 from plasma was ˜92%.

T1 sequence (P05067 672-713 limits assumed): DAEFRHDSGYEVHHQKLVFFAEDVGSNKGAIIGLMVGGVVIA

IC50 [3] [nM] | Assay 16 Mice plasma concentration [4] | SMILES | viability at 4 days, 10 µM [1] [%] | Assay 3(c) Neuroprotection (% inhibition of Abeta toxicity) [2] [%] | viability at 4 days, 1 µM [1] [%]
440 |  | O=c1c2c(Cl)cc(Cl)c(O)c2ncn1N1CCOCC1 [Compound 1080] | 70 | 15 | 
1520 |  | O=c1c2c(Cl)cc(Cl)c(O)c2ncn1-c1ccc(Cl)cn1 [Compound 1087] | 58 | 11 | 94
550 | Up to 207 ng/mL | CN1CCN(n2cnc3c(O)c(Cl)cc(Cl)c3c2=O)CC1 [Compound 1081] |  | 7 | 
460 |  | O=c1c2c(Cl)cc(Cl)c(O)c2ncn1CCc1ccccn1 [Compound 1091] | 92 | −8 | 100
840 |  | CCn1nccc1-n1cnc2c(O)c(Cl)cc(Cl)c2c1=O [Compound 1088] | 94 | 3 | 
780 |  | Cc1ccc(-n2cnc3c(O)c(Cl)cc(Cl)c3c2=O)nc1 [Compound 1089] | 83 | 13 | 96
 |  | O=c1c2c(Cl)cc(Cl)c(O)c2ncn1CC1CCNCC1 [Compound 1094] | 96 | 1 | 97
